Measured values taken from US20250051338A1, “TYK2 DEGRADERS AND USES THEREOF” (Kymera Therapeutics, Inc., priority 2021, published 2025).

Columns and labels:
Type in all cases: cell-based
TYK2 [1] = target: T1, TYK2 (Homo sapiens, UniProt P29597); experiment: TYK2 degradation MSD assay in human PBMC cells; design: endogenous in cells; host or cells: human PBMC; details: 4 to 24 hours incubation, read-out: TYK2 MSD DC50 rating in human PBMC
In short: (§1)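 Cells (0.4 million per well) were treated with a 9-point, 1:3 compound series from a top concentration of 1 to 10 μM for 4 to 24 hours at 37° C, then lysed in RIPA with protease/phosphatase inhibitors. Remaining TYK2 was quantified by sandwich MSD immunoassay; DC50 came from four-parameter nonlinear fits.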

TYK2 [2] = target: T1, TYK2; experiment: TYK2 degradation MSD assay in EBV-B cells; design: endogenous in cells; host or cells: EBV-B cells; details: 4 to 24 hours incubation, read-out: TYK2 MSD DC50 rating in EBV-B
In short: as §1

TYK2 [3] = target: T1, TYK2; experiment: TYK2 degradation MSD assay in OCI-LY10 cells; design: endogenous in cells; host or cells: EBV-B cells; details: 4 to 24 hours incubation, read-out: TYK2 MSD DC50 rating in OCI-LY10
In short: as §1

T1 sequence (P29597 whole entry): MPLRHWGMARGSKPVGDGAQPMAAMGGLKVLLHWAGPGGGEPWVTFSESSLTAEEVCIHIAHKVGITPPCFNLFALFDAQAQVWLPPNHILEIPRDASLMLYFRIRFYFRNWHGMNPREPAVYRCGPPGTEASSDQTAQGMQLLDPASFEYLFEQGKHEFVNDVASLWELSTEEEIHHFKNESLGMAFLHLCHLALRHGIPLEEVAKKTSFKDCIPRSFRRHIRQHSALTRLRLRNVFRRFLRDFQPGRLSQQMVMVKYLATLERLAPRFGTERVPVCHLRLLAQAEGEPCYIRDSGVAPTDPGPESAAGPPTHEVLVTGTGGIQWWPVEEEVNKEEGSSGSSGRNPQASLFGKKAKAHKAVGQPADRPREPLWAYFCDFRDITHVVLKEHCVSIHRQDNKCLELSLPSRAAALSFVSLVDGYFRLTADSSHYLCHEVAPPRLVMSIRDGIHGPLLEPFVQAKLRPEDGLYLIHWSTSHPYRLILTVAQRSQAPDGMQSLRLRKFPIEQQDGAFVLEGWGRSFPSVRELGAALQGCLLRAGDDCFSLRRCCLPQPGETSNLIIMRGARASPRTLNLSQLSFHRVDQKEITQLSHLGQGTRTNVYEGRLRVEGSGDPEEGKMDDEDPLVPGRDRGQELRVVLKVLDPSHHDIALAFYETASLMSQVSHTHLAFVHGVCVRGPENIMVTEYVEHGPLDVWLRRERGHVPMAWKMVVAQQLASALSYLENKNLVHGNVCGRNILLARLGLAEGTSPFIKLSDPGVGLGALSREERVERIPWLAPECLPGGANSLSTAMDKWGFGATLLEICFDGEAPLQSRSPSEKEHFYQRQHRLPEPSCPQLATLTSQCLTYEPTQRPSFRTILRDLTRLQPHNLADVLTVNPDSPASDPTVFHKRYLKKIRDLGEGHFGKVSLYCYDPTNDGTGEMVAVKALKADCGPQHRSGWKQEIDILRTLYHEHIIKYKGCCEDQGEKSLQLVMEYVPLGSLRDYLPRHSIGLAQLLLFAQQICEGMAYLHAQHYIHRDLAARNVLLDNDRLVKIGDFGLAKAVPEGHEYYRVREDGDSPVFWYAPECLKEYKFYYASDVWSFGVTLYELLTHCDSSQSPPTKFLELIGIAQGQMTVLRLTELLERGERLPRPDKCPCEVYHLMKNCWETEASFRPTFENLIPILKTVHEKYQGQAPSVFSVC

Row | DC50 (TYK2 [1]) [nM] | DC50 (TYK2 [2]) [nM] | DC50 (TYK2 [3]) [nM] | SMILES
1 | > 100 | 1 to 10 | > 100 | CNc1cc(Nc2cccn(-c3ccc(C(=O)N4CCC(OCC#Cc5ccc6c(c5)n(C)c(=O)n6C5CCC(=O)NC5=O)CC4)cn3)c2=O)nn2c(C(=O)N[C@@H]3C[C@@H]3F)cnc12 (stereo partly drawn) [Example K394]
2 | > 100 | < 1 | > 100 | CNc1cc(Nc2cccn(-c3ccc(C(=O)N4CCC(n5cc(-c6ccc7c(c6)n(C)c(=O)n7C6CCC(=O)NC6=O)cn5)CC4)cn3)c2=O)nn2c(C(=O)N[C@@H]3C[C@@H]3F)cnc12 (stereo partly drawn) [Example K395]
3 | > 100 | 1 to 10 | > 100 | CNc1cc(Nc2cccn(C3CCN(C(=O)N(C)C4CCN(Cc5cccc6c5n(C)c(=O)n6C5CCC(=O)NC5=O)CC4)CC3)c2=O)nn2c(C(=O)N[C@@H]3C[C@@H]3F)cnc12 (stereo partly drawn) [Example K396]
4 | > 100 | 1 to 10 | > 100 | CNc1cc(Nc2cccn(C3CCN(C(=O)N(C)CC4CCN(Cc5cccc6c5n(C)c(=O)n6C5CCC(=O)NC5=O)CC4)CC3)c2=O)nn2c(C(=O)N[C@@H]3C[C@@H]3F)cnc12 (stereo partly drawn) [Example K397]
5 | > 100 | < 1 | > 100 | CNc1cc(Nc2cccn(C3CCN(C(=O)N(C)CC4CCN(c5ccc6c(c5)n(C)c(=O)n6C5CCC(=O)NC5=O)CC4)CC3)c2=O)nn2c(C(=O)N[C@@H]3C[C@@H]3F)cnc12 (stereo partly drawn) [Example K398]
6 | > 100 | 1 to 10 | > 100 | CNc1cc(Nc2cccn(C3CCN(C(=O)NCCCCCCCCCCc4ccc5c(c4)n(C)c(=O)n5C4CCC(=O)NC4=O)CC3)c2=O)nn2c(C(=O)N[C@@H]3C[C@@H]3F)cnc12 (stereo partly drawn) [Example K399]
7 | > 100 | > 100 | > 100 | Cc1cc(C)cc(Nc2cc(NCCCCCCCCc3ccc4c(c3)n(C)c(=O)n4C3CCC(=O)NC3=O)c3ncc(C(=O)N[C@@H]4C[C@@H]4F)n3n2)c1 (stereo partly drawn) [Example K400]
8 | > 100 | > 100 | > 100 | Cc1cc(C)cc(Nc2cc(NCCCCCCc3ccc4c(c3)n(C)c(=O)n4C3CCC(=O)NC3=O)c3ncc(C(=O)N[C@@H]4C[C@@H]4F)n3n2)c1 (stereo partly drawn) [Example K401]
9 | > 100 | > 100 | > 100 | Cc1cc(C)cc(Nc2cc(NCCCCc3ccc4c(c3)n(C)c(=O)n4C3CCC(=O)NC3=O)c3ncc(C(=O)N[C@@H]4C[C@@H]4F)n3n2)c1 (stereo partly drawn) [Example K402]
10 | > 100 | > 100 | > 100 | Cn1c(=O)n(C2CCC(=O)NC2=O)c2cccc(C3CN(C4CCN(Cc5ccc(-c6cccc(Nc7ccc8ncc(C(=O)NC9CC9)n8n7)c6)nc5)CC4)C3)c21 (stereo not drawn) [Example K403]
11 | > 100 | > 100 | > 100 | Cn1c(=O)n(C2CCC(=O)NC2=O)c2ccc(C#CC3CCN(Cc4ccc(-c5cccc(Nc6ccc7ncc(C(=O)NC8CC8)n7n6)c5)nc4)CC3)cc21 (stereo not drawn) [Example K404]
12 | > 100 | > 100 | > 100 | Cn1c(=O)n(C2CCC(=O)NC2=O)c2ccc(C3CN(C4CCN(Cc5ccc(-c6cccc(Nc7ccc8ncc(C(=O)NC9CC9)n8n7)c6)nc5)CC4)C3)cc21 (stereo not drawn) [Example K405]
13 | > 100 | > 100 | > 100 | Cn1c(=O)n(C2CCC(=O)NC2=O)c2ccc(N3CCN(Cc4ccc(-c5cccc(Nc6ccc7ncc(C(=O)NC8CC8)n7n6)c5)nc4)CC3)cc21 (stereo not drawn) [Example K406]
14 | > 100 | > 100 | < 1 | CNc1cc(Nc2cccn(-c3ccc(C(=O)N4CCC(OCCCc5ccc6c(c5)n(C)c(=O)n6C5CCC(=O)NC5=O)CC4)cn3)c2=O)nn2c(C(=O)N[C@@H]3C[C@@H]3F)cnc12 (stereo partly drawn) [Example K407]
15 | > 100 | > 100 | < 1 | CNc1cc(Nc2cccn(-c3ccc(C(=O)N4CCC(CN5CCC(c6ccc7c(c6)n(C)c(=O)n7C6CCC(=O)NC6=O)CC5)CC4)cn3)c2=O)nn2c(C(=O)N[C@@H]3C[C@@H]3F)cnc12 (stereo partly drawn) [Example K408]
16 | > 100 | > 100 | 1 to 10 | CNc1cc(Nc2cccn(-c3ccc(C(=O)N4CCC5(CCN(c6cnc(C#Cc7ccc8c(c7)n(C)c(=O)n8C7CCC(=O)NC7=O)nc6)C5=O)C4)cn3)c2=O)nn2c(C(=O)N[C@@H]3C[C@@H]3F)cnc12 (stereo partly drawn) [Example K409]
17 | > 100 | > 100 | < 1 | CNc1cc(Nc2cccn(-c3ccc(C(=O)N4CCC(N5CC(c6ccc7c(c6)n(C)c(=O)n7C6CCC(=O)NC6=O)C5)CC4)cn3)c2=O)nn2c(C(=O)N[C@@H]3C[C@@H]3F)cnc12 (stereo partly drawn) [Example K410]

Row | DC50 (TYK2 [1]) [nM] | DC50 (TYK2 [2]) [nM] | DC50 (TYK2 [3]) [nM] | SMILES
18 | > 100 | > 100 | > 100 | Cn1c(=O)n(C2CCC(=O)NC2=O)c2cccc(C#CC3CCN(Cc4ccc(-c5cccc(Nc6ccc7ncc(C(=O)NC8CC8)n7n6)c5)nc4)CC3)c21 (stereo not drawn) [Example K412]
19 | > 100 | > 100 | < 1 | CNc1cc(Nc2cccc(-c3ccc(CN4CCC(c5ccc(-c6ccc7c(c6)n(C)c(=O)n7C6CCC(=O)NC6=O)cc5)CC4)cn3)c2)nn2c(C(=O)NC3CC3F)cnc12 (stereo not drawn) [Example K413]
20 | > 100 | > 100 | < 1 | CNc1cc(Nc2cccc(-c3ccc(CN4CCC(N5CC(c6cccc7c6n(C)c(=O)n7C6CCC(=O)NC6=O)C5)CC4)cn3)c2)nn2c(C(=O)N[C@@H]3C[C@@H]3F)cnc12 (stereo partly drawn) [Example K414]
21 | > 100 | 1 to 10 | > 100 | Cn1c(=O)n(C2CCC(=O)NC2=O)c2ccc(-c3ccc(N4CCN(Cc5ccc(-c6cccc(Nc7ccc8ncc(C(=O)NC9CC9)n8n7)c6)nc5)CC4)cc3)cc21 (stereo not drawn) [Example K415]
22 | > 100 | > 100 | > 100 | CNc1cc(Nc2cccn(-c3ccc(C(=O)N4CCC5(CN(CC#Cc6ccc7c(c6)n(C)c(=O)n7C6CCC(=O)NC6=O)C5)C4)cn3)c2=O)nn2c(C(=O)N[C@@H]3C[C@@H]3F)cnc12 (stereo partly drawn) [Example K416]
23 | > 100 | > 100 | > 100 | CNc1cc(Nc2cccn(-c3ccc(C(=O)N4CCN(CC#Cc5ccc6c(c5)n(C)c(=O)n6C5CCC(=O)NC5=O)CC4)cn3)c2=O)nn2c(C(=O)N[C@@H]3C[C@@H]3F)cnc12 (stereo partly drawn) [Example K417]
24 | > 100 | > 100 | < 1 | CNc1cc(Nc2cccn(-c3ccc(C(=O)N4CC5(CC(CN6CCN(c7ccc8c(c7)n(C)c(=O)n8C7CCC(=O)NC7=O)CC6)CO5)C4)cn3)c2=O)nn2c(C(=O)N[C@@H]3C[C@@H]3F)cnc12 (stereo partly drawn) [Example K418]
25 | > 100 | > 100 | < 1 | CNc1cc(Nc2cccn(-c3ccc(C(=O)N4CC(N5CCN(c6ccc7c(c6)n(C)c(=O)n7C6CCC(=O)NC6=O)CC5)C4)cn3)c2=O)nn2c(C(=O)N[C@@H]3C[C@@H]3F)cnc12 (stereo partly drawn) [Example K419]
26 | > 100 | > 100 | < 1 | CNc1cc(Nc2cccn(-c3ccc(C(=O)N4CC5(CN(CCC#Cc6ccc7c(c6)n(C)c(=O)n7C6CCC(=O)NC6=O)CCO5)C4)cn3)c2=O)nn2c(C(=O)N[C@@H]3C[C@@H]3F)cnc12 (stereo partly drawn) [Example K420]
27 | > 100 | > 100 | 1 to 10 | CNc1cc(Nc2cccn(-c3ccc(C(=O)N4CCC(OCC#Cc5cccc6c5n(C)c(=O)n6C5CCC(=O)NC5=O)CC4)cn3)c2=O)nn2c(C(=O)N[C@@H]3C[C@@H]3F)cnc12 (stereo partly drawn) [Example K421]
28 | > 100 | > 100 | < 1 | CNc1cc(Nc2cccn(-c3ccc(C(=O)N4CCC(CN5CCCN(c6ccc(-c7ccc8c(c7)n(C)c(=O)n8C7CCC(=O)NC7=O)cn6)CC5)CC4)cn3)c2=O)nn2c(C(=O)N[C@@H]3C[C@@H]3F)cnc12 (stereo partly drawn) [Example K422]
29 | > 100 | > 100 | 1 to 10 | CNc1cc(Nc2cccn(-c3ccc(C(=O)N4CCN(C(=O)C5CC(N6CCC(OCCCc7ccc8c(c7)n(C)c(=O)n8C7CCC(=O)NC7=O)CC6)C5)CC4)cn3)c2=O)nn2c(C(=O)N[C@@H]3C[C@@H]3F)cnc12 (stereo partly drawn) [Example K423]
30 | > 100 | > 100 | > 100 | CNc1cc(Nc2cccn(-c3ccc(C(=O)C4CCC(C5CCN(c6ccc7c(c6)n(C)c(=O)n7C6CCC(=O)NC6=O)C5)CN4)cn3)c2=O)nn2c(C(=O)N[C@@H]3C[C@@H]3F)cnc12 (stereo partly drawn) [Example K424]
31 | > 100 | > 100 | > 100 | CNc1cc(Nc2cccn(-c3ccc(C(=O)C4CCC([C@H]5CCN(c6ccc7c(c6)n(C)c(=O)n7C6CCC(=O)NC6=O)C5)CN4)cn3)c2=O)nn2c(C(=O)N[C@@H]3C[C@@H]3F)cnc12 (stereo partly drawn) [Example K425]
32 | > 100 | > 100 | > 100 | CNc1cc(Nc2cccn(-c3ccc(C(=O)N4CCC5(CCCN(CCc6ccc7c(c6)n(C)c(=O)n7C6CCC(=O)NC6=O)C5)C4)cn3)c2=O)nn2c(C(=O)N[C@@H]3C[C@@H]3F)cnc12 (stereo partly drawn) [Example K426]
33 | > 100 | > 100 | < 1 | CNc1cc(Nc2cccn(-c3ccc(C(=O)N(C)C4CCC(N5CCN(c6ccc7c(c6)n(C)c(=O)n7C6CCC(=O)NC6=O)CC5)CC4)cn3)c2=O)nn2c(C(=O)N[C@@H]3C[C@@H]3F)cnc12 (stereo partly drawn) [Example K427]
34 | > 100 | > 100 | < 1 | CNc1cc(Nc2cccn(-c3ccc(C(=O)NC4CCC(CN(C)C5CCN(Cc6ccc7c(c6)n(C)c(=O)n7C6CCC(=O)NC6=O)CC5)CC4)cn3)c2=O)nn2c(C(=O)N[C@@H]3C[C@@H]3F)cnc12 (stereo partly drawn) [Example K428]
